Reference: patent US6117859A, “Method of relieving chronic inflammation by using 5-alkylsulfonylsalicylanilides” (The Research Foundation of State University of New York, priority 1999, dated 2000)

Assays:
[1] = system: ear weight gain produced by multiple doses of TPA in mice; experiment: Chronic (multiple dose) TPA mouse ear inflammation assay, ear weight gain; type: in vivo, mouse (female CD-1); settings: for % Inhibition of Ear Weight Gain, Actual / % Inhibition of Ear Weight Gain, Relative to Hydrocortisone (HCV) = 100%: multiple doses of TPA; for % Inhibition of Ear Weight Gain, Relative to Hydrocortisone (HCV) = 100%: head prints 1.25 eg/ear
Description: The acute skin inflammation model described in Example 1, tests the ability of a compound to prevent inflammation and thus must be applied prophylactically. Most clinical situations, however, are present as chronic inflammatory conditions. […] The effects of the compounds of the present invention and Salifluor on chronically inflamed skin was measured in the mouse ear model that utilizes multiple TPA doses over a 10-day period to produce the inflammatory response.
The assay used female CD-1 mice (7-9 weeks of age). Following a 2-week quarantine, mice were randomly assigned to test groups (5 mice/groups). TPA (10 uL of 0.01 TPA in acetone) was administered to both the inner and outer surface of each ear (2μg/ear) on day 0,2,4,7, and 9 on protocol. On Day 7,8 and 9, two applications of test article were applied to each ear 2 and 4 hours after dosing with TPA. The test articles were administered in 10 uL aliquots to both the inner and outer surface of each ear (20 μl total/dose). […] Hydrocortisone-17-valerate (HCV, 20μg/ear) was employed as a positive control. Mice were sacrificed at Day 10 on protocol and uniform punch biopsies (approximately 8 mm dia.) were taken from each ear. While on protocol, dermal irritation was scored semiquantitatively at Day 1,3,5,8, and 10.
Inhibition of TPA stimulated increased ear weight was used as an initial measure of efficacy for all of the agents tested. One biopsy from each mouse was also quick frozen and stored at -70° C. for later assay of myleoperoxidase, an enzyme associated with infiltrating PMN, or other measure of efficacy. The remaining biopsy from each mouse treated with Trifluorosal or HCV was fixed in formalin and processed for histopathologic evaluation, including measurement of cellular infiltration (PMNs, endothelial cells, macrophages) and epidermal thickness at 20 random sites along the length of the specimen.
Initially, a dose-response curve for multiple doses of TPA to produce mouse ear weight gain was generated in order to determine the concentration of TPA to be employed in the inhibition studies. […] Another major difference between the multiple TPA dose (or chronic assay for inflammation) and the single TPA dose (or acute assay for inflammation) in the mouse ear is sensitivity to Non-steroidal antiinflammatory drugs (NSAIDs) and antihistamines.

[2] = in vivo; cited from earlier work
[3] = prior art compound; cited from earlier work
[4] = Solubility of representative compounds in various solvent systems; type: physicochemical
Description: The solubility of representative compounds of this invention in various solvent systems was determined. The solvents included ethanol, propylene glycol, SLS, Tween 80™ and combinations thereof.

[5] = prior art compound; cited from earlier work; remark: listed apart in the source
[6] = Single dose oral tolerance in rats; type: in vivo, rat (male weaning Sprague-Dawley); settings: single dose 2.5 or 0.75 g/kg in 5% CMC, 7 days
Description: To test for tolerance of the administered compounds, male weaning Sprague-Dawley rats were fed in a single dose of 2.5 or 0.75 g/kg of TMF-12, TMF-10, TMC-10 or TPC-10 in 5% carboxymethyl cellulose (CMC) or CMC alone. […] At completion of the 7 day observation period, necropsies were performed on all animals.

[7] = Stability in solution by HPLC (TMF-10, 40° C.); type: physicochemical; settings: 0.3 mg/ml in 30% ethanolic water, four weeks
Description: An analytical method to determine concentration and stability of some representative compounds of this invention in solution employing high pressure liquid chromatography (HPLC) was developed and validated. Both isocratic and gradient mobile phases of acetonitrile, water and methanol were investigated on a C-18 silica reverse solid phase column (Zorbax). Results were obtained using a 12 minute gradient of 80% to 100% methanol/water at a flow rate of 1.5 ml/minutes. Detection was carried out by measuring absorbance at 280 nm. Under these conditions TMF-10 and TMC-l0 each produced symmetrical peaks with retention times of 7.5 and 3.0 minutes, respectively. TMF-8 and TMF-12 had retention times of 4 and 9 minutes respectively. […] The lowest detectable quantity measured for all three compounds was 5.0 ng.
A 0.3 mg/ml solution of TMF-10 in 30% ethanolic water was maintained at 40° C. for several weeks. At various times samples were analyzed for decomposition employing the HPLC method described in Example 2.

[8] = aqueous buffer, pH 10 K-buffer @ 35° C.
[9] = aqueous buffer, pH 10 Na-buffer @ 22° C.
[10] = organic solvent or mixture, Ethanol @ 19° C.
[11] = organic solvent or mixture, Propylene Glycol @ 20° C.

Q: For `CCCCCCCC(=O)c1ccc(O)c(C(=O)Nc2cccc(C(F)(F)F)c2)c1` [Salifluor, reference compound], which “% Inhibition of Ear Weight Gain, Actual” value [1] is on record?
A: 0%

Q: What about the “% Inhibition of Ear Weight Gain, Relative to Hydrocortisone (HCV) = 100%” value [1] of the same molecule?
A: 0%

Q: And the “Anti-inflammatory activity in clinical trials” value [2]?
A: have been reported to have anti-inflammatory activity in clinical trials

Q: What about the “Solubility in aqueous solutions at neutral pH” value [3] of the same molecule?
A: relatively insoluble in aqueous solutions at neutral pH

Q: What about the solubility ([4]; +1% sls) of the same molecule?
A: 230 µg/mL

Q: What about the solubility ([4]; +2% sls) of the same molecule?
A: 290 µg/mL

Q: And the solubility ([4]; +4% sls)?
A: 380 µg/mL

Q: And the solubility [4, 8]?
A: 1.14 µg/mL

Q: What about the solubility [4, 9] of the same molecule?
A: 3.91 µg/mL

Q: What about the solubility [4, 10] of the same molecule?
A: 13000 µg/mL

Q: And the solubility [4, 11]?
A: 550 µg/mL

Q: And the pKa [5]?
A: 6.1

Q: Which “Inhibition of ear weight gain” value ([1]; 5.0 mg/ear (printed 'mc/ear' for Trifluorosal)) does the source give for `CCCCCCCCCCS(=O)(=O)c1ccc(O)c(C(=O)Nc2cccc(C(F)(F)F)c2)c1` [TMF-10] here?
A: 69.8%

Q: What about the “Activity in chronic assay (in words)” value ([1]; 1.25-5 mg/ear, remaining experiments) of the same molecule?
A: demonstrated consistent activity

Q: And the “Inhibition of ear weight gain” value ([1]; 2.5 or 1.25 mg/ear (two values printed for three doses))?
A: 0.0%

Q: What about the “% Inhibition of Ear Weight Gain, Actual” value [1] of the same molecule?
A: 54.7%

Q: What about the “% Inhibition of Ear Weight Gain, Relative to Hydrocortisone (HCV) = 100%” value [1] of the same molecule?
A: 59.9%

Q: And the Illness or deaths [6]?
A: No illness or deaths occurred

Q: What about the Decomposition in solution [7] of the same molecule?
A: no decomposition of TMF-10 was detected

Q: And the solubility ([4]; +0.5% tween 80)?
A: 760 µg/mL

Q: And the solubility ([4]; +1% sls)?
A: 920 µg/mL

Q: And the solubility ([4]; +1.5% tween 80)?
A: 2020 µg/mL

Q: What about the solubility ([4]; +2% SLS + 0.5% Tween 80) of the same molecule?
A: 1350 µg/mL

Q: And the solubility ([4]; +2% SLS + 1.0% Tween 80)?
A: 1910 µg/mL

Q: And the solubility ([4]; +2% SLS + 2.0% Tween 80)?
A: 2870 µg/mL

Q: And the solubility ([4]; +2% sls)?
A: 1280 µg/mL

Q: And the solubility ([4]; +3.0% tween 80)?
A: 4130 µg/mL

Q: What about the solubility ([4]; +4% sls) of the same molecule?
A: 2080 µg/mL

Q: What about the solubility [4, 8] of the same molecule?
A: < 0.1 µg/mL

Q: What about the solubility [4, 9] of the same molecule?
A: 1.89 µg/mL

Q: What about the solubility [4, 10] of the same molecule?
A: 44700 µg/mL

Q: What about the solubility [4, 11] of the same molecule?
A: 1700 µg/mL

Q: What about the solubility ([4]; ph 10 na-buffer +0.5% sls, pH 10 Na-buffer @ 22° C. +0.5% SLS) of the same molecule?
A: 370 µg/mL
